Regarding `COc1c(Cc2ccccc2)ccc2ccccc12`, the melting point lay in the range of 56 to 59 °C.

`CC(C)(C)n1ncc(S)c(Br)c1=O` displayed a melting point of 107 to 110 °C.

In the case of `COC(=O)COc1ccc(C(=O)OCc2ccccc2)cc1`, the melting point lay within 63 to 66 °C.

For `Cc1cc(-n2ccnc2)c2cccc(OCc3c(Cl)ccc(S(=O)(=O)N4CCC[C@H]4C(=O)NCC4CCN(Cc5ccccn5)CC4)c3Cl)c2n1`, the melting point came out at 100 °C.

Consider `CC(C)Oc1c(CO)cnc2c(Cl)cccc12`, for which the melting point was in the range of 88 to 89 °C.

The compound `O=C(c1cc2cc([N+](=O)[O-])ccc2[nH]1)N1CC(CCl)c2c1cc([N+](=O)[O-])c1ccccc21` (stereo not drawn) returned a melting point of over 300 °C.

`Clc1ccc(-c2c[nH]nc2-c2ccncc2)cc1`: the melting point lay in the range of 204 to 207 °C.

`Cc1ccc(S(=O)(=O)c2cnc(C)nc2Nc2c(C)cc(C)cc2C)cc1`: the melting point fell in the range of 202 to 204 °C.

`O=C(CCC#Cc1cccc(CF)n1)Nc1ccc(F)cc1` registered a melting point of 110 °C.

On to `CCC(C)(CC)CC(=O)C(OC(=C1C(=O)N(C(N)=O)c2cc(Cl)c(F)cc21)c1cccs1)C(=O)O` (stereo not drawn), for which the melting point is 124 to 125 °C.

In turn, `CCCCCCCCCCCCCCCCC[C@@H]1OC[C@@H](COCCCCCCCCOS(=O)(=O)c2ccc(C)cc2)O1` (relative stereo) gave a melting point of 45.9 to 50.8 °C.

`Cc1c2c(c(-c3ccc4c(c3)OCO4)c3c4c(ccc13)OCO4)CNC2=O` gave a melting point of 292 to 293 °C.

The compound `O=C1Nc2cccc(Cl)c2C(=O)N2CCC[C@@H]12` yielded a melting point of 264 to 266 °C.

`COc1ccc(C(CSc2ccccc2N)C(=O)O)cc1` (stereo not drawn) returned a melting point of 118 °C.

In turn, `O=C(N[C@H](Cc1ccc(C(F)(F)F)cc1)[C@@H](O)c1ccc(Cl)nc1)c1ccc(F)c2ccccc12` (racemic) had a melting point of 188 to 189 °C.

The compound `COC(=O)c1c(Cl)cc(Cl)c2ccc(Cl)cc12` gave a melting point of 113 to 115 °C.

The compound `CCOC(=O)N(CC(=O)O)C(=O)c1c(Br)ccc2c(C(F)(F)F)c(OC)ccc12` gave a melting point of 167 to 168 °C.

In turn, `O=S(=O)(Br)c1cccs1` gave a melting point of 49 to 51 °C.

Regarding `CC1COc2c(N3CCC(CN)C3)c(F)cc3c(=O)c(C(=O)O)cn1c23` (stereo not drawn), the melting point was in the range of 213 to 216 °C.

On to `Fc1ccc(F)c(CN2CCNc3ncc(-c4ccnc(N5CCOCC5)c4)cc32)c1Cl`, for which the melting point worked out at 157 °C.

For the compound `C=CCC1(C(=O)NCCCC)c2ccccc2-c2ccccc21`, the melting point fell in the range of 62.5 to 64 °C.

As for `CN1CCC23c4c5ccc(OCCCCN)c4CC1C2C=CC(O)C3O5` (stereo not drawn), the melting point was in the range of 140 to 142 °C.

As to `OC(c1ccc(F)cc1)(c1ncc[nH]1)c1ccc(Cl)cc1Cl` (stereo not drawn), the melting point turned out to be 194 °C.

On to `CCOC(=O)C1Cc2[nH]c3ccc(OC)cc3c2C1` (stereo not drawn), for which the melting point fell in the range of 82 to 83 °C.

Take `O=C(Nc1cccc(Br)n1)Nc1cccc2c1C1CC3(CCN1C2=O)SCCS3` (stereo not drawn): the melting point was 170 °C.

Compound `CN(C)c1ccc(C=NC2CCCCC2N=Cc2ccc(O)cc2O)c(O)c1` (stereo not drawn) displayed a melting point of 202 °C.

The compound `CN1CCN(NC(=O)Nc2cccc3c2C(=O)c2c-3n[nH]c2-c2ccc(N(C)C)cc2)CC1` had a melting point of over 300 °C.

In the case of `Cc1[nH]c(=O)ccc1-c1cccc(O)c1`, the melting point was in the range of 285 to 288 °C.

Regarding `Cc1csc2[nH]c(=O)n(CCC(C(=O)NO)N(C)S(=O)(=O)c3ccc(Oc4ccccc4)cc3)c(=O)c12` (stereo not drawn), the melting point was 142 to 144 °C.

Turning to `Cn1nc2c(-c3ccc(Cl)cc3Cl)cccc2c1C(=O)NCCO`, the melting point was in the range of 188 to 190 °C.

As to `CCC(=S)NC[C@H]1CN(c2ccc(N3CCOCC3)c(F)c2)C(=O)O1`, the melting point was in the range of 138 to 139 °C.

`CCCCOc1cc(C)c(NC(=O)C(C)Br)c(C)c1` (stereo not drawn) came in with a melting point of 132 to 134 °C.

`CCOC(=O)c1c(C)nn(-c2ccccn2)c1N` gave a melting point of 80 to 81 °C.

Turning to `COC(=O)c1ccc(OCCCCCOc2ccc(C(=O)OC)cc2)cc1`, the melting point was 93 to 95 °C.

Turning to `CC(C)CC1(C(CCN2C(=O)c3ccc(N)cc3C2=O)C(=O)NO)CCN(CCc2ccccc2)C1=O` (stereo not drawn), the melting point is 187 to 188 °C.

For `CCOC(=O)c1cnc(NN)nc1-c1ccccc1`, the melting point lay in the range of 74 to 75 °C.

Take `Cc1nc2cc(NC(=O)c3cc4cccnc4n3Cc3ccncc3)ccc2s1`: the melting point lay within 211 to 236 °C.

Compound `Oc1ccc(CCc2cc(O)c(O)c(O)c2)cc1` had a melting point of 180 to 188 °C.

Consider `CNC(=O)[C@@H]1C=CCN1S(=O)(=O)c1ccc(Cl)c(CBr)c1Cl`, for which the melting point came out at 66 °C.

As for `CSc1ccc(CSc2cccc(C(=O)Nc3ccc(C#N)cn3)c2)cc1`, the melting point is 161 to 162 °C.

In turn, `CCc1nnc(-c2ccc(OC)cc2)n1-c1ccccc1` came in with a melting point of 118 °C.

`COC(=O)c1c(SCc2ccc(OC)cc2)nc(C)n1Cc1cc2c(cc1Cl)OCO2` came in with a melting point of 169 °C.

On to `CS(=O)(=O)c1ccc(-n2cncc2-c2ccccc2)cc1`, for which the melting point is 164 °C.

`O=C(CNC(=O)c1cc([N+](=O)[O-])ccc1F)OCc1ccccc1` returned a melting point of 56 to 58 °C.

`c1ccc2c(c1)CC(CN1CCC(c3c[nH]c4cc5c(cc34)OCO5)CC1)C2` gave a melting point of 187 to 188 °C.

For `O=C1c2ccc(CCCCc3ccccc3)cc2CCN1O`, the melting point is 82 to 83 °C.

`Cc1ccc(-c2coc3cc(O)cc(O)c3c2=O)cc1` registered a melting point of 215 to 217 °C.

`CCN(CC)c1ccc(C(c2ccc(N(C)C)cc2)c2ccc(N(C)C)cc2)c(O)c1` gave a melting point of 94 to 95 °C.

Compound `COC1(c2ccc3c(c2)OCO3)CCC(=O)CC1` showed a melting point of 84 to 85 °C.

In the case of `O=C1C2CC(F)CCN2C(=O)N1c1ncc(Cl)cc1F` (stereo not drawn), the melting point lay in the range of 154 to 157 °C.

In turn, `CCOC(=O)C(C)Oc1ccc(Oc2cc3cc(Cl)ccc3nc2Cl)cc1` (stereo not drawn) displayed a melting point of 56 °C.

`Fc1cccc(F)c1C1=NC(c2ccc(-c3ccc(OCc4ccc(C(F)(F)F)cc4)cc3)cc2)CO1` (stereo not drawn) returned a melting point of 166 °C.

The compound `CCOC(C(=O)O)N1CCN2c3ccccc3Cc3ccccc3C2C1` (stereo not drawn) gave a melting point of 105 to 108 °C.

`Cn1c(SCC(=O)C23CC4CC(CC(C4)C2)C3)nc2ccccc21` returned a melting point of 146 to 148 °C.

`CC(C)(C)c1cc(Oc2ccc([N+](=O)[O-])c(O)c2)ccc1Oc1ccc([N+](=O)[O-])c(O)c1` gave a melting point of 156 to 158 °C.

For `N#Cc1ccccc1-c1cccc(-c2cnc3nc(C(F)(F)F)cnn23)c1F`, the melting point was 167 to 168 °C.

On to `C=CCc1cc(CC(=O)O)ccc1OCc1ccc2ccccc2n1`, for which the melting point turned out to be 130 °C.

For `Cc1cccc(NC(=O)NCC(=O)N(c2ccccc2)C(C(=O)OC(C)(C)C)c2cccc(Cl)c2)c1` (racemic), the melting point is 100 °C.

Turning to `COc1ccc(C(O)Cc2nccnc2C)cc1` (stereo not drawn), the melting point lay within 89 to 91 °C.

In the case of `NCCCc1ccc(CCCN)nc1`, the melting point was in the range of 116 to 119 °C.

`Cc1ccccc1-c1cccc(C=CC(=O)O)c1` came in with a melting point of 124 to 125 °C.

As for `COc1nc(OC)nc(N(C(=O)Oc2ccccc2)C(=O)Oc2ccccc2)n1`, the melting point was 125 °C.

`CCCCCCCCCC(C)(C)c1cc(C(=O)Sc2ccc(C(=O)O)cc2)ccc1OC` gave a melting point of 186 to 187 °C.

As usually defined, the melting point is the temperature, or range, at which the solid turns liquid.

Source of the values: a melting point compilation (Tetko et al.; mined from patent text by program, amines drawn as free bases though some values may be those of a salt).
